Results as given in patent publication US8138207B2, “Aminocarbonyl-substituted 8-N-benzimidazoles, methods for their preparation and their use in pharmaceutical compositions” (Sanofi-Aventis, priority 2005, dated 2012).
Counter-ions that a name gives are not always drawn.

Target: T1, DPP-IV from porcine kidneys (Sus scrofa, UniProt P22411)
T1 construct: DPP-IV from porcine kidneys (Sigma, Munich); purchased Sigma, Munich; host or cells: porcine kidney tissue
Assay: Measurement of the DPP-IV activity (fluorimetric, H-Ala-Pro-AFC substrate)
Format: biochemical
Settings: substrate H-Ala-Pro-AFC 15 μM, Tris/HCl pH 7.4, room temperature
Procedure: Measurement of the DPP-IV Activity:
DPP-IV from porcine kidneys (Sigma, Munich)
H-Ala-Pro-AFC (Bachem, Weil am Rhein)
DPP-IV (1 mU/ml, end concentration)
H-Ala-Pro-AFC (15 μm end concentration)
in Tris/HCl (40 mM, pH 7.4), total volume 0.2 ml
The reaction was performed at room temperature for different periods (typically 10 minutes) and stopped at the end of the reaction by adding 20 μl of ZnCl2 (1 M). The conversion of H-Ala-Pro-AFC was determined fluorimetrically by measuring the emission at 535 nm on excitation at 405 nm. In the case of addition of inhibitors, the buffer volume added was adjusted such that a total volume of the test mixture of 200 μl maintained.
% inhibition at a fixed concentration was calculated as follows: (1-enzyme activityinhibited reaction/enzyme activityuninhibited reaction)×100
IC50 values for inhibitors were determined by varying the inhibitor concentrations in the case of the specified substrate concentration of 15 μM. Ki and Km values were determined by corresponding variation of substrate and inhibitor concentration as described (Dixon, M. and Webb, E. C. (1979) Enzymes, third edition, pp. 47-206, Academic Press). The values for Km, IC50 and Ki were calculated using a commercially available software package (Leatherbarrow, R. J. (1992) GraFit Version 3.0, Erithacus Software Ltd. Staines, U.K.).

T1 sequence (P22411 whole entry): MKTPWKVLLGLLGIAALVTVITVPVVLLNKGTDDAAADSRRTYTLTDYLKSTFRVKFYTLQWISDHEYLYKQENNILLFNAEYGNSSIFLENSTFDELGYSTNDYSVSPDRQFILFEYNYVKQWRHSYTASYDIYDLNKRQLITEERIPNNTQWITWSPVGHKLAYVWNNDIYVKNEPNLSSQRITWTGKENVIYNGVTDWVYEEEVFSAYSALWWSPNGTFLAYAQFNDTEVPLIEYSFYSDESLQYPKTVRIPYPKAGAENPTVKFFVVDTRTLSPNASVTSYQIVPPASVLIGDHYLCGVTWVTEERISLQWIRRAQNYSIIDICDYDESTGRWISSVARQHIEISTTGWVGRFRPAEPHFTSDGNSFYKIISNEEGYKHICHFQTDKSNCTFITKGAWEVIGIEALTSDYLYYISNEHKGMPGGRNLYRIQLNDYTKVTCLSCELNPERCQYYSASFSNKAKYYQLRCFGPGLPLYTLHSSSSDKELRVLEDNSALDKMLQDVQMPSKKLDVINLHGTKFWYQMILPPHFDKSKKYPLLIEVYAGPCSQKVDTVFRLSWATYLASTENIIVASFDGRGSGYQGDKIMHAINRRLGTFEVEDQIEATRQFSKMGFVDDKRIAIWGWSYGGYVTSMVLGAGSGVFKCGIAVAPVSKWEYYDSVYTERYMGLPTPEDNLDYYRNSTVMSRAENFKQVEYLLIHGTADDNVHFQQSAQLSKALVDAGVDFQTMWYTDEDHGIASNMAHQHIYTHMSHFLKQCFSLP

IC50 [nM] | SMILES
2500 | CC(C)=CCn1c(N2CCC[C@@H](N)C2)nc2ccc(NC(=O)c3ccccc3)cc21 [Example 1, R—N-[2-(3-Aminopiperidin-1-yl)-1-(3-methylbut-2-enyl)-1H-benzimidazol-6-yl]-benzamide trifluoroacetic acid salt]
2700 | CC(C)=CCn1c(N2CCC[C@@H](N)C2)nc2ccc(NC(=O)Cc3ccccc3)cc21 [Example 2]
